In PubChem BioAssay AID1963856 (Molecular Pharmacology Branch, DTP, NCI, 2024):

Test system: LG0567-F671-PDC KRAS tumor spheroid viability
Test: Anticancer human tumor LG0567-F671-PDC patient-derived lung adenocarcinoma cell line growth inhibition [KRAS2]
Settings: spheroids with HUVEC and MSC; for IC50: curve of first compound; for viability, T/C: stronger effect = lower value; active = viability on the fitted dose curve at most 10% of control; inactive = the rest
Text: Multicellular complex tumor spheroid response to RAS pathway inhibitors in combination with a targeted agents in patient-derived cell lines with oncogenic KRAS variants from multiple cancer types
A high-throughput screen of multi-cell type tumor spheroids was designed to identify active combinations of targeted small molecules and KRAS pathway inhibitors. Complex spheroids include a stromal component modeled by human endothelial cells (HUVEC) and fibroblasts modeled by human mesenchymal stem cells (MSCs). The concentration ranges selected for each drug and investigational agent were based upon clinically achievable concentrations if the clinical Cmax of the agent was known.
Compounds. The drugs and investigational agents: BI-3406 (NSC825286), BAY-293 (NSC824723), batoprotafib (TNO155; NSC825523), sotorasib (AMG 510; NSC818433), MRTX1257 (NSC819558), elimusertib (BAY 1895344; NSC800525), molibresib (GSK525762; NSC774829), temuterkib (LY3214996; NSC803410), venetoclax (NSC766270), alisertib (NSC759677), olaparib (NSC753686), talazoparib (NSC767125), erdafitinib (NSC781556), ipatasertib (NSC767898), cabozantinib (NSC761068), nintedanib (NSC756659), abemaciclib (NSC768073), docetaxel (NSC628503), trametinib (NSC758246), and sapanisertib (NSC764658) were obtained from the National Cancer Institute (NCI) Developmental Therapeutics Program Chemical Repository. The FDA-approved anticancer drug set is available from the Developmental Therapeutics Program. […] The stock solutions were prepared in dimethyl sulfoxide (DMSO, Sigma-Aldrich, St. Louis, MO, cat. D2650) at 800-fold the tested concentration and stored at -70 degrees C prior to their use. All drugs and investigational agents were tested over a range starting from a high concentration at or near the clinical Cmax and decreasing in half-log increments. If the clinical Cmax for an agent had not been determined, the highest concentration tested was 10 microM.
Cell Culture. All cells were maintained in an incubator at 37 degrees C and 5% CO2 with 95% humidity. The PDC lines were cultured according to standard operating procedures established by the NCI PDMR (https://pdmr.cancer.gov/sops/default.htm). Briefly, all PDCs were thawed and cultured in Matrigel-coated flasks prepared with a working solution of 1X Ham's F-12 nutrient mix, without supplementation (Invitrogen, Waltham, MA, cat. 11765054), 100 U/mL penicillin-streptomycin (Invitrogen, cat. 15140122), and 2.5% Matrigel (Corning Inc., Corning, NY, cat. 354248) for the first three passages. All PDCs were cultured in complete DMEM/F-12 media containing advanced DMEM/F-12 (Invitrogen, cat. 12634028), 4.9% defined fetal bovine serum, heat inactivated (HyClone Laboratories Inc., Logan, UT, cat. SH30070.03HI), 389 ng/mL hydrocortisone (Sigma-Aldrich, cat. H4001), 9.7 ng/mL human EGF recombinant protein (Invitrogen, cat. PHG0313), 23.4 microg/mL adenine (Sigma-Aldrich, cat. A2786), 97.3 U/mL penicillin-streptomycin (Invitrogen, cat. 15140122), 1.9 mM L-glutamine (Invitrogen, cat. 25030081), and 9.7 microM Y-27632 dihydrochloride (Tocris Bioscience, Bristol, United Kingdom, cat. 1254). The PDCs were cultured in complete DMEM/F12 media without 9.7 microM Y-27632 dihydrochloride for at least two passages prior to the screen. The established cell line HOP-62 was cultured in RPMI 1640 medium, HEPES (Invitrogen, cat. 22400105) with 10% defined fetal bovine serum (HyClone Laboratories Inc., cat. SH30070.03) and 2 mM L-glutamine (Invitrogen, cat. 25030081). The pooled donor HUVEC were cultured in endothelial cell growth medium 2 (PromoCell, Heidelberg, Germany, cat. C-22011) and the hMSC were cultured in mesenchymal stem cell growth medium 2 (PromoCell, cat. C-28009). For all experiments, HUVEC and hMSC were used at passages </=5, while the malignant cell lines were used at passages </=15. […]

[1] = second compound 0.1 µM, first compound 0.0316 µM
[2] = second compound 0.1 µM, first compound 0.1 µM
[3] = second compound 0.1 µM, first compound 0.316 µM
[4] = second compound 0.1 µM, first compound 1 µM
[5] = second compound 0.316 µM, first compound 0.0316 µM
[6] = second compound 0.316 µM, first compound 0.1 µM
[7] = second compound 0.316 µM, first compound 0.316 µM
[8] = second compound 0.316 µM, first compound 1 µM
[9] = second compound 1 µM, first compound 0.0316 µM
[10] = second compound 1 µM, first compound 0.1 µM
[11] = second compound 1 µM, first compound 0.316 µM
[12] = second compound 1 µM, first compound 1 µM
[13] = second compound 3.16 µM, first compound 0.0316 µM
[14] = second compound 3.16 µM, first compound 0.1 µM
[15] = second compound 3.16 µM, first compound 0.316 µM
[16] = second compound 3.16 µM, first compound 1 µM
[17] = second compound 10 µM, first compound 0.0316 µM
[18] = second compound 10 µM, first compound 0.1 µM
[19] = second compound 10 µM, first compound 0.316 µM
[20] = second compound 10 µM, first compound 1 µM
[21] = second compound 0.1 µM, first compound 0.00316 µM
[22] = second compound 0.1 µM, first compound 0.01 µM
[23] = second compound 0.316 µM, first compound 0.00316 µM
[24] = second compound 0.316 µM, first compound 0.01 µM
[25] = second compound 1 µM, first compound 0.00316 µM
[26] = second compound 1 µM, first compound 0.01 µM
[27] = second compound 3.16 µM, first compound 0.00316 µM
[28] = second compound 3.16 µM, first compound 0.01 µM
[29] = second compound 10 µM, first compound 0.00316 µM
[30] = second compound 10 µM, first compound 0.01 µM
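Also: drug exposure lasted seven days after spheroids formed for three days.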

CC(C)NCC(C(=O)N1CCN(c2ncnc3c2C(C)CC3O)CC1)c1ccc(Cl)cc1 (stereo not given) + C=CC(=O)N1CCN(c2nc(=O)n(-c3c(C)ccnc3C(C)C)c3nc(-c4c(O)cccc4F)c(F)cc23)C(C)C1
inactive: viability, T/C [1] 31.4% | viability, T/C [2] 25.9% | viability, T/C [3] 19.8% | viability, T/C [4] 14% | viability, T/C (second compound 0.1 µM, first compound 3.16 µM) 14.5% | viability, T/C (second compound 0.1 µM, first compound 10 µM) 12.8% | viability, T/C [5] 26.5% | viability, T/C [6] 28.5% | viability, T/C [7] 20.9% | viability, T/C [8] 13.7% | viability, T/C (second compound 0.316 µM, first compound 3.16 µM) 13.7% | viability, T/C [9] 30.6% | viability, T/C [10] 26.5% | viability, T/C [11] 17% | viability, T/C [12] 15.9% | viability, T/C (second compound 1 µM, first compound 3.16 µM) 14.4% | viability, T/C (second compound 1 µM, first compound 10 µM) 12.6% | viability, T/C [13] 29.9% | viability, T/C [14] 21.2% | viability, T/C [15] 19.9% | viability, T/C [16] 19.1% | viability, T/C (second compound 3.16 µM, first compound 3.16 µM) 13.3% | viability, T/C (second compound 3.16 µM, first compound 10 µM) 11.3% | viability, T/C [17] 25.8% | viability, T/C [18] 17% | viability, T/C [19] 15.6% | viability, T/C [20] 13.3% | viability, T/C (second compound 10 µM, first compound 3.16 µM) 15% | viability, T/C (second compound 10 µM, first compound 10 µM) 11%
active: viability, T/C (second compound 0.316 µM, first compound 10 µM) 10.6%
< 31.6 nM: IC50 (second compound 0.1 µM) | IC50 (second compound 0.316 µM) | IC50 (second compound 1 µM) | IC50 (second compound 3.16 µM) | IC50 (second compound 10 µM)

CCN1CCN(Cc2ccc(Nc3ncc(F)c(-c4cc(F)c5nc(C)n(C(C)C)c5c4)n3)nc2)CC1 + C=CC(=O)N1CCN(c2nc(=O)n(-c3c(C)ccnc3C(C)C)c3nc(-c4c(O)cccc4F)c(F)cc23)C(C)C1
< 3.16 nM: IC50 (second compound 0.1 µM) | IC50 (second compound 0.316 µM) | IC50 (second compound 1 µM) | IC50 (second compound 3.16 µM) | IC50 (second compound 10 µM)
inactive: viability, T/C [21] 21.6% | viability, T/C [22] 21.6% | viability, T/C [1] 17.2% | viability, T/C [2] 18.7% | viability, T/C [3] 19.8% | viability, T/C [4] 24.2% | viability, T/C [23] 21.3% | viability, T/C [24] 19.6% | viability, T/C [5] 16.3% | viability, T/C [6] 16.4% | viability, T/C [7] 18.6% | viability, T/C [8] 25.7% | viability, T/C [25] 21.3% | viability, T/C [26] 22.3% | viability, T/C [9] 16.8% | viability, T/C [10] 17.3% | viability, T/C [11] 22% | viability, T/C [12] 23.7% | viability, T/C [27] 20.4% | viability, T/C [28] 21.1% | viability, T/C [13] 18.6% | viability, T/C [14] 15.9% | viability, T/C [15] 20.4% | viability, T/C [16] 33.8% | viability, T/C [29] 22.3% | viability, T/C [30] 20.6% | viability, T/C [17] 22.3% | viability, T/C [18] 20.6% | viability, T/C [19] 27.9% | viability, T/C [20] 12.8%

Cn1ncnc1[C@H]1c2n[nH]c(=O)c3cc(F)cc(c23)N[C@@H]1c1ccc(F)cc1 + C=CC(=O)N1CCN(c2nc(=O)n(-c3c(C)ccnc3C(C)C)c3nc(-c4c(O)cccc4F)c(F)cc23)C(C)C1
inactive: viability, T/C (second compound 0.1 µM, first compound 0.000316 µM) 24.7% | viability, T/C (second compound 0.1 µM, first compound 0.001 µM) 27.1% | viability, T/C [21] 21.8% | viability, T/C [22] 21.3% | viability, T/C [1] 23.8% | viability, T/C [2] 24.4% | viability, T/C (second compound 0.316 µM, first compound 0.000316 µM) 25.5% | viability, T/C (second compound 0.316 µM, first compound 0.001 µM) 26.2% | viability, T/C [23] 23.1% | viability, T/C [24] 20.8% | viability, T/C [5] 24.1% | viability, T/C [6] 21.6% | viability, T/C (second compound 1 µM, first compound 0.000316 µM) 29.7% | viability, T/C (second compound 1 µM, first compound 0.001 µM) 27.1% | viability, T/C [25] 27.1% | viability, T/C [26] 20.9% | viability, T/C [9] 23.6% | viability, T/C [10] 22.8% | viability, T/C (second compound 3.16 µM, first compound 0.000316 µM) 24.8% | viability, T/C (second compound 3.16 µM, first compound 0.001 µM) 25.9% | viability, T/C [27] 25.2% | viability, T/C [28] 25.5% | viability, T/C [13] 23.4% | viability, T/C [14] 21.1% | viability, T/C (second compound 10 µM, first compound 0.000316 µM) 21.9% | viability, T/C (second compound 10 µM, first compound 0.001 µM) 23.5% | viability, T/C [29] 24.6% | viability, T/C [30] 20.2% | viability, T/C [17] 19.6% | viability, T/C [18] 20.1%
< 0.316 nM: IC50 (second compound 0.1 µM) | IC50 (second compound 0.316 µM) | IC50 (second compound 1 µM) | IC50 (second compound 3.16 µM) | IC50 (second compound 10 µM)
